Data taken from patent US4317824A, “Derivatives of quinoxaline-1,4-dioxides” (Abic, Ltd., priority 1976, dated 1982).
Values after ≈ are worked out from the molar mass of the structure shown.

Columns and labels:
Staph. Aur. = experiment: antimicrobial activity, minimal inhibitory concentration, Staph. Aur.; format: cell-based
Procedure: (§1) The antimicrobial activity of some compounds according to the present invention was measured and the results are shown in the following Tables. The activity is indicated as the minimal inhibitory concentration in μg/ml.

B. Cereus = experiment: antimicrobial activity, minimal inhibitory concentration, B. Cereus; format: cell-based; settings: Bacillus cereus
Procedure: as §1

E. Coli [1] = experiment: antimicrobial activity, minimal inhibitory concentration, E. Coli; format: cell-based; settings: Escherichia coli
Procedure: as §1

Cand. Alb. = experiment: antimicrobial activity, minimal inhibitory concentration, Cand. Alb.; format: cell-based
Procedure: as §1

Trichophyt. Rubrum = experiment: antimicrobial activity, minimal inhibitory concentration, Trichophyt. Rubrum; format: cell-based
Procedure: as §1

Crypt. Neof. = experiment: antimicrobial activity, minimal inhibitory concentration, Crypt. Neof.; format: cell-based
Procedure: as §1

Mycoplasma gallisept = experiment: antimicrobial activity, minimal inhibitory concentration, Mycoplasma gallisept; format: cell-based
Procedure: as §1

Proteus = experiment: antimicrobial activity, minimal inhibitory concentration, Proteus; format: cell-based
Procedure: as §1

Pseud. Aur. = experiment: antimicrobial activity, minimal inhibitory concentration, Pseud. Aur.; format: cell-based
Procedure: as §1

E. Coli [2] = experiment: Systemic E. Coli infection in mice; format: in vivo
Procedure: (§2) Some compounds of general formula Id were tested also in vivo.

St. aur = experiment: Systemic St. aur infection in mice; format: in vivo
Procedure: as §2

E. Coli [3] = experiment: E. Coli infections chick; format: in vivo; settings: 50 mg/kg
Procedure: as §2

in vivo = settings: mouse, po
[4] = Acute oral LD50 in chicks; settings: chicken, in vivo
Salm. Typh. = experiment: antimicrobial activity, minimal inhibitory concentration, Salm. Typh.; format: cell-based; settings: read-out: minimal inhibitory concentration
Procedure: as §1

B. Subtilis = experiment: antimicrobial activity, minimal inhibitory concentration, B. Subtilis; format: cell-based; settings: Bacillus subtilis
Procedure: as §1

Shig. Flex. = experiment: antimicrobial activity, minimal inhibitory concentration, Shig. Flex.; format: cell-based
Procedure: as §1

E. Coli [5] = experiment: U. Tract infections in mice (E. Coli); format: in vivo; settings: U. Tract infections (E. Coli), 2,5 mg × 10 days
Procedure: as §2

[6] = growth promotion experiment with male turkeys for 4 weeks; format: in vivo; settings: P<0.001
Text: The results were statistically significant (P<0.001).

Acute oral LD50 in mice = settings: mouse, in vivo
Aspergillus Niger = experiment: antimicrobial activity, minimal inhibitory concentration, Aspergillus Niger; format: cell-based
Procedure: as §1

[7] = systemic E. Coli infection, 2,5 mg × 2 per day
[8] = systemic St. aur infection, 2,5 mg × 2 per day

SMILES | MIC (Staph. Aur.) | MIC (B. Cereus) | MIC (E. Coli [1]) | MIC (Cand. Alb.) | MIC (Trichophyt. Rubrum) | MIC (Crypt. Neof.) | MIC (Mycoplasma gallisept) | MIC (B. Subtilis) | also measured
CN1CCN(NC(=NO)c2c[n+]([O-])c3ccccc3[n+]2[O-])CC1 | 50 µg/mL (≈ 157 µM) | 50 µg/mL (≈ 157 µM) | 25 µg/mL (≈ 78.5 µM) | 25 µg/mL (≈ 78.5 µM) | 25 µg/mL (≈ 78.5 µM) | 10 to 25 µg/mL (≈ 31.4 to 78.5 µM) | 2 µg/mL (≈ 6.28 µM) | – | MIC (Proteus): 11 to 100 µg/mL (≈ 34.6 to 314 µM); MIC (Pseud. Aur.): 11 to 100 µg/mL (≈ 34.6 to 314 µM)
[O-][n+]1cc(C(=NO)NN2CCOCC2)[n+]([O-])c2ccccc21 [drawing 8] | – | – | – | – | – | – | – | – | Protection (E. Coli [2]; [7]): + (indicates protection >80%); Protection (St. aur; [8]): + (indicates protection >80%); Protection (E. Coli [3]): - (indicates protection <50%)
[O-][n+]1cc(C(=NO)NN2CCOCC2)[n+]([O-])c2ccccc21 [Example 25, 2-(N-morpholinoamino)-carboxamidoxime-quinoxaline-1,4-dioxide] | – | – | – | – | – | – | – | – | LD50 (in vivo): 1240 mg/kg; LD50 [4]: 428 mg/kg
CCN(CC)C(=NO)c1c[n+]([O-])c2ccccc2[n+]1[O-] [Example 22, 2-(N-diethylamino)-carboxaldoxime-quinoxaline-1,4-dioxide] | 11 to 100 µg/mL (≈ 39.8 to 362 µM) | 11 to 100 µg/mL (≈ 39.8 to 362 µM) | 50 µg/mL (≈ 181 µM) | – | – | – | – | – | MIC (Salm. Typh.): 50 µg/mL (≈ 181 µM); MIC (Pseud. Aur.): 10 µg/mL (≈ 36.2 µM)
CNC(=NO)c1c[n+]([O-])c2ccccc2[n+]1[O-] [Example 18 (methylamino), 2-(N-methylamino)-carboxaldoxime-quinoxaline-1,4-dioxide] | 10 µg/mL (≈ 42.7 µM) | 25 µg/mL (≈ 107 µM) | 25 µg/mL (≈ 107 µM) | – | – | – | 10 to 20 µg/mL (≈ 42.7 to 85.4 µM) | – | MIC (Salm. Typh.): 25 µg/mL (≈ 107 µM); MIC (Proteus): 11 to 100 µg/mL (≈ 47 to 427 µM); Protection (E. Coli [2]; [7]): + (indicates protection >80%); Protection (St. aur; [8]): + (indicates protection >80%); Protection (E. Coli [3]): + (indicates protection >80%)
Cc1ccc2c(c1)[n+]([O-])c(C(Cl)=NO)c[n+]2[O-] [Example 7, 2-(α-chloro)-carboxaldoxime-7-methyl-quinoxaline-1,4-dioxide] | 25 µg/mL (≈ 98.6 µM) | 25 µg/mL (≈ 98.6 µM) | 25 µg/mL (≈ 98.6 µM) | 25 µg/mL (≈ 98.6 µM) | 25 µg/mL (≈ 98.6 µM) | 50 µg/mL (≈ 197 µM) | – | 11 to 100 µg/mL (≈ 43.4 to 394 µM) | MIC (Shig. Flex.): 11 to 100 µg/mL (≈ 43.4 to 394 µM)
CCOC(=O)NNC(=NO)c1c[n+]([O-])c2ccccc2[n+]1[O-] [Example 35, 2-(carbazinic acid ethyl ester)-carboxaldoxime-quinoxaline-1,4-dioxide] | 10 µg/mL (≈ 32.5 µM) | – | 40 to 50 µg/mL (≈ 130 to 163 µM) | – | – | – | 10 to 25 µg/mL (≈ 32.5 to 81.4 µM) | 10 µg/mL (≈ 32.5 µM) | MIC (Salm. Typh.): 10 to 25 µg/mL (≈ 32.5 to 81.4 µM); Protection (E. Coli [2]; systemic E. Coli infection, 1,25 mg × 2 per day): + (indicates protection >80%); Protection (St. aur; [8]): + (indicates protection >80%); Protection (E. Coli [5]): + (indicates protection >80%); increase in weight gain ([6]; 30 g/ton in the feed): 18.7%; increase in weight gain ([6]; 50 g/ton in the feed): 18.5%; increase in weight gain ([6]; 75 g/ton in the feed): 16%; LD50 (Acute oral LD50 in mice): 4950 mg/kg; LD50 [4]: 1500 mg/kg
CCCNC(=NO)c1c[n+]([O-])c2ccccc2[n+]1[O-] [Example 20, 2-(propylamino)-carboxamidoxime-quinoxaline-1,4-dioxide] | 10 µg/mL (≈ 38.1 µM) | 25 µg/mL (≈ 95.3 µM) | 25 µg/mL (≈ 95.3 µM) | 11 to 100 µg/mL (≈ 41.9 to 381 µM) | 11 to 100 µg/mL (≈ 41.9 to 381 µM) | 11 to 100 µg/mL (≈ 41.9 to 381 µM) | 25 to 50 µg/mL (≈ 95.3 to 191 µM) | – | MIC (Salm. Typh.): 25 µg/mL (≈ 95.3 µM); MIC (Proteus): 11 to 100 µg/mL (≈ 41.9 to 381 µM); MIC (Pseud. Aur.): 10 µg/mL (≈ 38.1 µM); MIC (Aspergillus Niger): 11 to 100 µg/mL (≈ 41.9 to 381 µM); Protection (E. Coli [2]; [7]): + (indicates protection >80%); Protection (St. aur; systemic St. aur infection, 5 mg × 2 per day): - (indicates protection <50%); Protection (E. Coli [5]): + (indicates protection >80%)
CN1CCN(C(=NO)c2c[n+]([O-])c3ccccc3[n+]2[O-])CC1 [drawing 6] | 25 µg/mL (≈ 82.4 µM) | 25 µg/mL (≈ 82.4 µM) | 25 µg/mL (≈ 82.4 µM) | – | – | – | 10 µg/mL (≈ 33 µM) | – | MIC (Proteus): 11 to 100 µg/mL (≈ 36.3 to 330 µM); MIC (Pseud. Aur.): 11 to 100 µg/mL (≈ 36.3 to 330 µM)
CC(=O)ON=C(Cl)c1c[n+]([O-])c2ccc(Cl)cc2[n+]1[O-] [Example 11, 2-[α-chloro-(0-acetyl)-carboxaldoxime]-7-chloro-quinoxaline-1,4-dioxide] | 11 to 100 µg/mL (≈ 34.8 to 316 µM) | – | – | 1 µg/mL (≈ 3.16 µM) | 2 µg/mL (≈ 6.33 µM) | 2 µg/mL (≈ 6.33 µM) | – | 11 to 100 µg/mL (≈ 34.8 to 316 µM) | MIC (Shig. Flex.): 11 to 100 µg/mL (≈ 34.8 to 316 µM)
CCC(=O)ON=C(Cl)c1c[n+]([O-])c2ccc(Cl)cc2[n+]1[O-] [Example 10, 2-(α-chloro-0-propionyl)-carboxaldoxime-7-chloro-quinoxaline-1,4-dioxide] | 11 to 100 µg/mL (≈ 33.3 to 303 µM) | – | – | 1 µg/mL (≈ 3.03 µM) | 1 µg/mL (≈ 3.03 µM) | 1 µg/mL (≈ 3.03 µM) | – | 11 to 100 µg/mL (≈ 33.3 to 303 µM) | –
CN1CCN(C(=NO)c2c[n+]([O-])c3ccccc3[n+]2[O-])CC1 [Example 26a, 2-(4'-methyl-piperazino)-carboxaldoxime-quinoxaline-1,4-dioxide] | – | – | – | – | – | – | – | – | increase in weight gain ([6]; 50 g/ton in the feed): 15.6%; LD50 (in vivo): 1240 mg/kg; LD50 [4]: 400 mg/kg
CC(=O)ON=C(Cl)c1c[n+]([O-])c2ccc(C)cc2[n+]1[O-] [Example 12, 2-[α-chloro-(0-acetyl)-7-methyl-quinoxaline]-1,4-dioxide] | – | – | – | 10 µg/mL (≈ 33.8 µM) | 1 µg/mL (≈ 3.38 µM) | 10 µg/mL (≈ 33.8 µM) | – | 11 to 100 µg/mL (≈ 37.2 to 338 µM) | MIC (Shig. Flex.): 11 to 100 µg/mL (≈ 37.2 to 338 µM)
CN(C)C(=NO)c1c[n+]([O-])c2ccccc2[n+]1[O-] [Example 30, 2-(dimethylamino)-carboxaldoxime-quinoxaline-1,4-dioxide] | 10 µg/mL (≈ 40.3 µM) | 50 µg/mL (≈ 201 µM) | 10 µg/mL (≈ 40.3 µM) | – | – | – | – | – | Protection (E. Coli [2]; [7]): + (indicates protection >80%); Protection (St. aur; [8]): +/- (indicates protection 50-80%); Protection (E. Coli [5]): + (indicates protection >80%); Protection (E. Coli [3]): + (indicates protection >80%)
